Among the test systems are MDA-N; PC-3; A549; T47D; 786-0; UACC-62; UO-31; IGROV-1; COLO 205; NCI-H23; M14; HOP-62; UACC-257; RPMI-8226; SW-620; SF-539; OVCAR-3; HT-29; Hs-578T; RXF 393.
Assay in all cases: growth of human tumour cells (NCI), 48 h

The values below come from ChEMBL document CHEMBL1201862, “PubChem BioAssay data set” (2004).

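48-hour exposure; five concentrations; linearly interpolated endpoints. At the GI50, growth is halved.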 Active and inactive are the calls of the source. No stated cut-off is given here; in the data, active = GI50 up to about 1.1 µM and inactive = higher.

As to `CCOP(=O)(OCC)C(Nc1cccc(F)c1)c1ccc(N(C)C)cc1` (stereo not given), the GI50 is > 100 µM (inactive) with MDA-N; 62.1 µM (inactive) with PC-3; 52.7 µM (inactive) in the experiment on A549; 34.8 µM (inactive) with T47D; > 10 µM (inactive) in the experiment with 786-0; 50.4 µM (inactive) with UACC-62. Moreover, the GI50 in the experiment with UO-31 is > 100 µM (inactive); in the experiment with IGROV-1 it was > 100 µM (inactive); in the experiment with COLO 205, 97.1 µM (inactive); in the experiment with NCI-H23, > 100 µM (inactive); in the experiment on M14 it was 74.3 µM (inactive); in the experiment with HOP-62, > 100 µM (inactive). Besides, the GI50 with UACC-257 was 76.9 µM (inactive); in the experiment with RPMI-8226, 67.6 µM (inactive); in the experiment with SW-620 it was > 100 µM (inactive); with SF-539, > 100 µM (inactive); in the experiment on OVCAR-3, > 100 µM (inactive); with HT-29, 59.2 µM (inactive). For the same compound, the GI50 with Hs-578T and in the experiment with RXF 393 was > 100 µM (inactive) each time.

Regarding `N=C(N)SCc1cc(Cl)cc(Cl)c1O`, the GI50 with MDA-N was 16.4 µM (inactive); in the experiment on PC-3, 19.3 µM (inactive); with A549 it was 20.7 µM (inactive); with T47D, 20.9 µM (inactive); in the experiment on 786-0, 18 µM (inactive); in the experiment on UACC-62, 17.3 µM (inactive). For the same compound, the GI50 in the experiment with UO-31 is 15.5 µM (inactive); in the experiment on IGROV-1, 18.5 µM (inactive); in the experiment on COLO 205 it was 17.7 µM (inactive); in the experiment on NCI-H23, 19 µM (inactive); in the experiment on M14 it was 16.6 µM (inactive); with HOP-62, 18.8 µM (inactive). Also, the GI50 with UACC-257 is 16.9 µM (inactive); in the experiment with RPMI-8226, 19.8 µM (inactive); in the experiment with SW-620, 20.7 µM (inactive); in the experiment with SF-539, 3.58 µM (inactive); with OVCAR-3, 17.2 µM (inactive); in the experiment on HT-29 it was 16 µM (inactive). For the same compound, the results for the GI50 with Hs-578T and in the experiment on RXF 393 were 20.4 µM (inactive) and 19.9 µM (inactive), respectively.

With `O=C1C(=C(I)I)c2ccccc2-c2ccccc21`, the GI50 with MDA-N is 2 µM (inactive); with PC-3, 3.71 µM (inactive); in the experiment with A549, 16.3 µM (inactive); in the experiment with T47D it was 2.3 µM (inactive); in the experiment on 786-0 it was 2.07 µM (inactive); in the experiment on UACC-62, 4.52 µM (inactive). The GI50 with UO-31 is 2.1 µM (inactive); in the experiment on IGROV-1, 6.07 µM (inactive); in the experiment on COLO 205 it was 1.56 µM (inactive); in the experiment on NCI-H23, 5.07 µM (inactive); in the experiment on M14, 3.02 µM (inactive); in the experiment on HOP-62 it was 11.9 µM (inactive). Moreover, the GI50 in the experiment with UACC-257 was 2.1 µM (inactive); in the experiment with RPMI-8226, 0.53 µM (active); with SW-620 it was 1.63 µM (inactive); in the experiment on SF-539 it was 1.34 µM (inactive); in the experiment with OVCAR-3, 1.74 µM (inactive); with HT-29 it was 3.21 µM (inactive). For the same compound, the results for the GI50 in the experiment on Hs-578T and with RXF 393 were 7.83 µM (inactive) and 1.68 µM (inactive), respectively.

For the compound `Clc1ccc(-c2c(C3=NCCCN3)nnn2-c2ccc(Cl)cc2)cc1`, the GI50 in the experiment with MDA-N was 19.1 µM (inactive); in the experiment with PC-3, 31.1 µM (inactive); in the experiment on A549, > 76 µM (inactive); in the experiment on T47D it was 31.3 µM (inactive); with 786-0, 40.9 µM (inactive); in the experiment on UACC-62, 18.5 µM (inactive). The GI50 with UO-31 was 39.1 µM (inactive); with IGROV-1 it was 56 µM (inactive); in the experiment on COLO 205, 16.6 µM (inactive); in the experiment on NCI-H23, > 79.1 µM (inactive); in the experiment with M14, 16.7 µM (inactive); with HOP-62, 55.5 µM (inactive). Moreover, the GI50 is 22.3 µM (inactive) in the experiment with UACC-257; 31.4 µM (inactive) in the experiment on RPMI-8226; 49.8 µM (inactive) in the experiment with SW-620; 31.4 µM (inactive) in the experiment with SF-539; > 78.7 µM (inactive) in the experiment with OVCAR-3; 21.3 µM (inactive) in the experiment on HT-29. Moreover, the values for the GI50 in the experiment on Hs-578T and in the experiment on RXF 393 were 26.9 µM (inactive) and 17.7 µM (inactive), respectively.

For the compound `CC1(C)N=C(N)N=C(N)N1c1cccc(OCc2cccc(N)c2)c1`, the GI50 is 6.1 µM (inactive) in the experiment on MDA-N; > 38.7 µM (inactive) with PC-3; 7.21 µM (inactive) with A549; > 100 µM (inactive) in the experiment on T47D; 10.9 µM (inactive) in the experiment on 786-0; 6.11 µM (inactive) with UACC-62. The GI50 in the experiment on UO-31 was > 100 µM (inactive); in the experiment with IGROV-1, 3.31 µM (inactive); with COLO 205, 37.8 µM (inactive); in the experiment with NCI-H23, 14.2 µM (inactive); in the experiment with M14, 58.5 µM (inactive); in the experiment on HOP-62, > 91.6 µM (inactive). The GI50 was 6.14 µM (inactive) in the experiment with UACC-257; 56.1 µM (inactive) with RPMI-8226; > 100 µM (inactive) in the experiment with SW-620; 19.9 µM (inactive) with SF-539; 39.6 µM (inactive) in the experiment with OVCAR-3; 16.9 µM (inactive) in the experiment on HT-29. Also, the GI50 with Hs-578T was > 100 µM (inactive); in the experiment on RXF 393, 41.9 µM (inactive).

`[N-]=[N+]=Nc1c(-c2ccccc2)c(=O)n(-c2ccccc2)c2ccccc12`: the GI50 was 45.3 µM (inactive) in the experiment with MDA-N; 32.4 µM (inactive) with PC-3; > 100 µM (inactive) in the experiment on A549; 24.6 µM (inactive) in the experiment with T47D; > 100 µM (inactive) in the experiment on 786-0; 56 µM (inactive) in the experiment with UACC-62. Moreover, the GI50 in the experiment on UO-31 is 37.3 µM (inactive); in the experiment on IGROV-1, > 100 µM (inactive); in the experiment on COLO 205, 62.1 µM (inactive); in the experiment with NCI-H23, 80.5 µM (inactive); with M14, 62.2 µM (inactive); in the experiment on HOP-62, 99.5 µM (inactive). Moreover, the GI50 with UACC-257 is 65.8 µM (inactive); with RPMI-8226, > 100 µM (inactive); in the experiment with SW-620, > 100 µM (inactive); in the experiment with SF-539 it was > 100 µM (inactive); in the experiment with OVCAR-3 it was 52 µM (inactive); in the experiment with HT-29, 41.7 µM (inactive). Further, the GI50 was 56.9 µM (inactive) with Hs-578T and 45.7 µM (inactive) in the experiment with RXF 393.

Consider `CC(=O)C(=[N+]=[N-])C(=O)N1CCOC1=O`, for which the GI50 with MDA-N, in the experiment on PC-3, in the experiment with A549, in the experiment with T47D, in the experiment on 786-0 and in the experiment on UACC-62 was > 10 µM (inactive) throughout. For the same compound, the GI50 in the experiment on UO-31, in the experiment on IGROV-1, in the experiment on COLO 205, with NCI-H23, with M14 and in the experiment on HOP-62 was > 10 µM (inactive) each time. The GI50 with UACC-257, in the experiment with RPMI-8226, with SW-620, in the experiment on SF-539, in the experiment with OVCAR-3 and in the experiment with HT-29 was > 10 µM (inactive) throughout. Moreover, the GI50 in the experiment on Hs-578T and with RXF 393 was > 10 µM (inactive) throughout.

With `O=[N+]([O-])c1ccc2nc(-c3ccccn3)c(-c3ccccn3)nc2c1`, the GI50 in the experiment with MDA-N is 45.4 µM (inactive); in the experiment with PC-3, 38.5 µM (inactive); with A549, 57.4 µM (inactive); in the experiment on T47D, > 100 µM (inactive); with 786-0, > 100 µM (inactive); in the experiment with UACC-62 it was 44.5 µM (inactive). For the same compound, the GI50 is > 100 µM (inactive) in the experiment on UO-31; 94.6 µM (inactive) in the experiment with IGROV-1; 30.5 µM (inactive) in the experiment on COLO 205; > 100 µM (inactive) with NCI-H23; 66.7 µM (inactive) in the experiment on M14; 35.1 µM (inactive) in the experiment on HOP-62. Moreover, the GI50 is 98.4 µM (inactive) in the experiment with UACC-257; > 100 µM (inactive) in the experiment on RPMI-8226; 41.9 µM (inactive) with SW-620; 45.9 µM (inactive) with SF-539; 29.4 µM (inactive) in the experiment on OVCAR-3; 40.5 µM (inactive) with HT-29. Further, the GI50 was > 100 µM (inactive) in the experiment with Hs-578T and 86.5 µM (inactive) in the experiment with RXF 393.

For `Cc1ccc(OC(=O)N2C/C(=C\c3ccccc3)C(=O)/C(=C/c3ccccc3)C2)cc1`, the GI50 in the experiment on MDA-N is 4.02 µM (inactive); with PC-3, 27.6 µM (inactive); in the experiment with A549, > 69.5 µM (inactive); in the experiment on T47D it was > 100 µM (inactive); in the experiment on 786-0, 17.1 µM (inactive); with UACC-62, 23.5 µM (inactive). Also, the GI50 in the experiment with UO-31 was 36.9 µM (inactive); in the experiment on IGROV-1 it was 40.7 µM (inactive); in the experiment with COLO 205, > 68.7 µM (inactive); with NCI-H23, 26.4 µM (inactive); in the experiment on M14, 8.79 µM (inactive); in the experiment on HOP-62, 18.5 µM (inactive). Also, the GI50 is 40.6 µM (inactive) in the experiment on UACC-257; 0.403 µM (active) in the experiment with RPMI-8226; 4.47 µM (inactive) in the experiment with SW-620; 26.4 µM (inactive) in the experiment on SF-539; 25.6 µM (inactive) in the experiment on OVCAR-3; 4.93 µM (inactive) with HT-29. Moreover, the GI50 in the experiment on Hs-578T is 20.9 µM (inactive); with RXF 393, 20.1 µM (inactive).

As for `CC1(CF)SCc2nc3ccccc3n21` (stereo not given), the GI50 with MDA-N, in the experiment with PC-3, with A549, in the experiment with T47D, in the experiment on 786-0 and with UACC-62 was > 100 µM (inactive) each time. Also, the GI50 with UO-31 is 81.1 µM (inactive); in the experiment with IGROV-1, > 100 µM (inactive); in the experiment with COLO 205 it was > 100 µM (inactive); with NCI-H23, > 100 µM (inactive); with M14, > 100 µM (inactive); with HOP-62, > 100 µM (inactive). Besides, the GI50 with UACC-257, in the experiment with RPMI-8226, in the experiment on SW-620, with SF-539, with OVCAR-3 and in the experiment on HT-29 was > 100 µM (inactive) each time. Further, the GI50 with Hs-578T and in the experiment on RXF 393 was > 100 µM (inactive) in each case.
